Reference: patent US20250275964A1, “METHODS OF INHIBITING LIVER-TYPE GLUTAMINASE, GLS2” (CORNELL UNIVERSITY, priority 2019, published 2025)

Key:
MCF7 cells = experiment: 6-day cell proliferation assay, MCF7; assay type: cell-based, human; details: MCF7, proliferation over 6 days
Protocol: (§1) Human breast cancer cell lines MCF7, BT-474, T-47D, MDA-MB-453, MDA-MB-231, Hs 578T, HCC38, SK-BR-3, and DU4475 were purchased from the American Type Culture Collection (ATCC) and no additional cell authentication was performed. The TSE human breast cancer cell line was supplied by Dr. Steven Abcouwer (University of Michigan). All breast cancer cells were cultured at 37° C. under a 5% CO2 atmosphere in RPMI 1640 medium containing 2 mM glutamine (Gibco) and supplemented with 10% fetal bovine serum (FBS) (Gibco). The 293T cell line (ATCC) used for generating lentivirus particles was cultured as above but using DMEM, high glucose (Gibco).
(§2) Culture medium was added to 12-well plates (1 ml/well) and wells were seeded with cells at Day 0 as follows. MCF7, T-47D, BT-474, HCC38 cells: […] cells/well. MDA-MB-453 and MDA-MB-231 cells: 1×10^4 cells/well. TSE and Hs 578T cells: 0.3×10^4 cells/well. After 16 hours, culture medium was replaced with fresh medium supplemented with appropriate concentrations of inhibitors and was subsequently replaced every 48 hours. On Day 6 cells were trypsinized and suspended in an appropriate volume of culture medium, and the total number of cells per well was determined using a hemocytometer or a TC20 Automated Cell Counter (Bio-Rad).

MDA-MB-453 cells = experiment: 6-day cell proliferation assay, MDA-MB-453; assay type: cell-based, human; details: MDA-MB-453, proliferation over 6 days
Protocol: as §1, §2

MDA-MB-231 cells = experiment: 6-day cell proliferation assay, MDA-MB-231; assay type: cell-based, human
Protocol: as §1, §2

[1] = tested on: MDA-MB-231 cells carrying the plasmid vector only; experiment: 6-day cell proliferation assay, MDA-MB-231 vector only; assay type: cell-based, human; details: 6 days
Protocol: as §2
(§3) Vectors for expressing human GAC or GLS2 in breast cancer cell lines were based on pCDNA3.1/V5-His TOPO (Thermo Fisher Scientific), with the appropriate gene sub-cloned in and the tag switched to HA-tag or myc-tag for immunofluorescence experiments. Vectors pQE80-GAC-72-598 and pQE80-GLS2-38-602, for expressing the processed forms of human GAC (residues 72 to 598) or GLS2 (residues 38 to 602) in E. coli, were described in Huang et al., “Characterization of the Interactions of Potent Allosteric Inhibitors with Glutaminase C, a Key Enzyme in Cancer Cell Glutamine Metabolism,” J. Biol. Chem. 293:3535-3545 (2018), which is hereby incorporated by reference in its entirety.
For 60 mm dish format. […]

[2] = tested on: MDA-MB-231 cells stably expressing GLS2; experiment: 6-day cell proliferation assay, MDA-MB-231 stably expressing GLS2; assay type: cell-based, human
Protocol: as §2, §3
For 60 mm dish format. 0.2 ml Opti-MEM (Gibco) containing […] of the appropriate DNA construct, along with 0.2 ml Opti-MEM containing 12 μl Lipofectamine 2000 (Invitrogen), were separately incubated at room temperature for 5 min. The two solutions were combined and incubated for an additional 20 min, mixed with 1.6 ml culture medium and added to cells. After 5 hours incubation at 37° C. the transfection mixture was replaced with fresh culture medium, and cells were then incubated for an additional 48 hours to allow for ectopic expression of GLS or GLS2. To select for cells stably expressing the DNA construct, culture medium supplemented with 500 μg/ml G-418 disulfate (Research Products International) was added and replaced every 2 days for 2-3 weeks until isolated colonies ˜2 mm in diameter were present. Individual colonies were transferred to a 12-well plate (1 colony per well) using sterile blotting paper soaked in trypsin solution and were then cultured in medium supplemented with 250 μg/ml G-418 disulfate. All colonies were screened by western blot for ectopic expression, and positive clones were maintained in medium supplemented with 250 μg/ml G-418 disulfate.

[3] = tested on: MDA-MB-453 xenograft tumors; experiment: MDA-MB-453 xenograft tumor growth in mice; assay type: in vivo; details: 10 mg/kg, 3 times per week from Day 14 for three weeks, NSG mice
Protocol: (§4) All experiments involving mice were carried out according to protocols approved by the Institutional Animal Care and Use Committee at Cornell University. In all cases, 6-8 week old female NOD.Cg-Prkdcscid Il2rg^tm1Wjl/SzJ (NSG) mice (The Jackson Laboratory) were used. For xenograft experiments, a suspension of MDA-MB-453 breast cancer cells (or derivative cell lines stably expressing shRNAs) was mixed 1:1 with Matrigel Matrix (BD Biosciences) to give a final concentration of 3×10^6 cells per 100 μl, and 3×10^6 cells were immediately injected into each of the two flanks of 6-8 week old female NOD.Cg-Prkdc^scid Il2rg^tm1Wjl/SzJ (NSG) mice (n=3 mice per condition). Tumor sizes were measured using calipers, and estimated volumes were calculated using the formula V=(π/6)×length×width^2, as described previously (Tomayko et al., “Determination of Subcutaneous Tumor Size in Athymic (Nude) Mice,” Cancer Chemother Pharmacol. 24:148-154 (1989), which is hereby incorporated by reference in its entirety). For experiments using MDA-MB-453 cells stably expressing shRNAs, mice were sacrificed after 6 weeks. For 968 treatment studies, when tumors of 1-2 mm diameter were detected, the mice were randomly divided into two groups and intraperitoneal (IP) injections of 968 (10 mg/kg) solution or carrier solution were initiated and carried out three times weekly. […]

[4] = Gross toxicity in treated mice; assay type: in vivo; details: 10 mg/kg body weight, three times weekly for three weeks
Protocol: as §4

[5] = tested on: primary human mammary epithelial cells or fibroblasts; details: Wang et al. 2010; cited from earlier work
[6] = MDA-MB-231 (parental), compared with GLS2 clones, 6 days
[7] = MDA-MB-231, proliferation over 6 days
[8] = MDA-MB-231 GLS2 clone 1, 6 days
[9] = MDA-MB-231 GLS2 clone 2, 6 days

Structure (SMILES) | EC50 (MCF7 cells) [µM] | EC50 (MDA-MB-453 cells) [µM] | EC50 (MDA-MB-231 cells; [6]) [µM] | EC50 (MDA-MB-231 cells; [7]) [µM] | EC50 [1] [µM] | EC50 [2, 8] [µM] | EC50 [2, 9] [µM] | EC50 ([2]; MDA-MB-231 with ectopic expression of GLS2, 6 days) [µM] | tumor growth [3] | toxicity [4] | growth of primary human mammary epithelial cells or fibroblasts [5]
O=C(Cc1ccccc1)Nc1nnc(CCSCCc2nnc(NC(=O)Cc3ccccc3)s2)s1 [BPTES] | ~20 | ~20 | 2 | 2.1 | 1.3 | > 20 | > 20 | > 20 | did not significantly impact tumor growth |  | 
CN(C)c1ccc(C2Nc3ccc4ccccc4c3C3=C2C(=O)CC(C)(C)C3)cc1Br (stereo not shown) [Compound 968] | 4 | 3 | 4 | 5 | 2 | 4 | 5 |  | robustly inhibited | no gross evidence of toxicity | does not affect the growth
